Assay results as given in US10609926B2, “Synergistic herbicidal composition” (JIANGSU ROTAM CHEMISTRY CO., LTD, priority 2016, dated 2020).

Tested on: gramineous weeds, broadleaf weeds and sedge weeds
Assay: Post-emergence weed control efficacy test (potted plants, stem and leaf treatment; Colby evaluation)
Format: in vivo
Excerpt: The desired efficacy of the combination of three active compounds can be calculated through “Colby formula” as follows (S. R. Colby, “Calculating Synergistic and Antagonistic Responses of Herbicide Combinations, Weeds 1967, 15, 20-22): if
E0 is the anticipated activity of active compounds A, B and C when used in an amount of m, n, h g/ha or concentrate of m, n, h ppm, E0=A×B×C/(100^(N-1))
If the observed actual activity E is greater than the anticipated activity (E0), then the composition has synergistic effect.
If the observed actual efficiency of weed control (E) through the biology test is greater than the anticipated value (E0) as calculated via Colby's equation, then it represents that the efficacy of herbicidal composition is greater than the sum of efficacy of each component, which means the composition has synergistic effect.
Use stem and leaf treatment for potted grown plant(NY/T 1155.4-2006): fill a plastic pot (6 cm height, 9 cm diameter) with a quantity of soil and sow 15 to 20 seeds of monocotyledonous weeds and dicotyledonous weeds in the plastic pot, cover it with 0.5 to 1 cm thick of fine soil and then put it in greenhouse for cultivation. When weeds grow to the 2 to 4 leave stage, conduct the stem and leaf spray treatment with 1 mL herbicidal solution on each pot and repeat four times for each treatment and leave some pots untreated as control group. Keep the treated pots in a greenhouse for cultivation and observe the growing status of target weeds periodically. Conduct the visual test on the target weeds regarding the damage symptoms and growth inhibition effect after 21 days. Weigh up the fresh weight above the ground or plant fresh weight and evaluate the toxicity of the herbicidal formulation on target weeds based on the fresh weight inhibition rate of the target.
Prepare the following formulations according to specific weight percentages: 1. Pyroxasulfone; 2. Topramezone; 3 Atrazine; 4. Pyroxasulfone+Topramezone; 5. Pyroxasulfone+Atrazine; 6. Topramezone+Atrazine; 7. Pyroxasulfone+Topramezone+Atrazine. After that, dilute above formulations with water to obtain diluted formulations.
Conduct visual assessment the damage symptom and growth inhibition status of target weeds after 21 days. Weigh up the fresh weight above the ground and calculate the inhibition rate of fresh weight (%).
Anticipated effects of the special combined three active components can be calculated through so called “Colby formula”. If the actual efficiency of weed control observed during the biology test exceeds the anticipated value […] calculated by Colby's formula, then it represents that the efficacy of herbicidal composition is greater than the sum of efficacy of each component, which means the composition has synergistic effect.
The synergistic herbicidal composition of present invention has conducted test on the following important harmful plants (gramineous weeds, broadleaf weeds, sedge weeds) with wide herbicidal spectrum: Echinochloa oryzicola, Digitaria spp., Stellaria media, Amaranthus retroflexus, Fallopia (ex Polygonum) Convolvulus, Abuthilon theophrasti, Sagittariatrifolia, Oriental Waterplantain Rhizome, Herb of Pygmy Arrowhead, Monochoria korsakowii, Lindernia procumbens, Solanum nigrum L., Scirpus juncoides Roxb, Cyperus difformis L., Chenopodium alum L., Avena fatua L. and Galium aparine L. var. tenerum Gren. et (Godr.) Rebb.

SMILES: CCNc1nc(Cl)nc(NC(C)C)n1 [Atrazine, 2-chloro-4-ethylamino-6-isopropylamino-1,3,5-triazine]
- Actual survival rate (application rate 1 g/ha): 100%
- Actual survival rate (application rate 50 g/ha): 100%
- Actual survival rate (application rate 100 g/ha): 67%

SMILES: Cn1nc(C(F)(F)F)c(CS(=O)(=O)C2=NOC(C)(C)C2)c1OC(F)F [Pyroxasulfone, 3-[5-(difluoromethoxy)-1-methyl-3-(trifluoromethyl)pyrazol-4-ylmethylsulfonyl]-4,5-dihydro-5,5-dimthyl-1,2-oxazole]
- Actual survival rate (application rate 1 g/ha): 89%
- Actual survival rate (application rate 5 g/ha): 78%
- Actual survival rate (application rate 10 g/ha): 60%

SMILES: Cc1c(C(=O)c2cnn(C)c2O)ccc(S(C)(=O)=O)c1C1=NOCC1 [Topramezone, [3-(4,5-dihydro-3-isoxazolyl)-2-methyl-4-(methylsulfonyl)phenyl](5-hydroxy-1-methyl-1H-pyrazol-4-yl)methanone]
- Actual survival rate (application rate 1 g/ha): 87.8%
- Actual survival rate (application rate 25 g/ha): 24.5%
- Actual survival rate (application rate 50 g/ha): 12.8%
